Results reported in the kinase profiling compilation of Christmann-Franck et al. (2016).

Legend:
Assay in all cases: KINOMEscan competition binding
Conditions in all cases: compound 10.0 µM; call rule not given here
ABL2 (human) = ABL2 (human) (UniProt P42684)
ACVR1 (human) = ACVR1 (human) (UniProt Q04771)
ACVR1B (human) = ACVR1B (human) (UniProt P36896)
AKT2 (human) = AKT2 (human) (UniProt P31751)
AXL (human) = AXL (human) (UniProt P30530)
BRAF (human) = BRAF (human) (UniProt P15056)
CAMK1D (human) = CAMK1D (human) (UniProt Q8IU85)
CDK16 (human) = CDK16 (human) (UniProt Q00536)
CSNK2A1 (human) = CSNK2A1 (human) (UniProt P68400)
CSNK2A2 (human) = CSNK2A2 (human) (UniProt P19784)
EPHA1 (human) = EPHA1 (human) (UniProt P21709)
EPHA6 (human) = EPHA6 (human) (UniProt Q9UF33)
EPHA8 (human) = EPHA8 (human) (UniProt P29322)
FES (human) = FES (human) (UniProt P07332)
FGFR2 (human) = FGFR2 (human) (UniProt P21802)
FLT4 (human) = FLT4 (human) (UniProt P35916)
FYN (human) = FYN (human) (UniProt P06241)
KIT (human) = KIT (human) (UniProt P10721)
MAP4K3 (human) = MAP4K3 (human) (UniProt Q8IVH8)
MAP4K4 (human) = MAP4K4 (human) (UniProt O95819)
MAPK8 (human) = MAPK8 (human) (UniProt P45983)
MST4 (human) = MST4 (human) (UniProt Q9P289)
PAK2 (human) = PAK2 (human) (UniProt Q13177)
PDGFRB (human) = PDGFRB (human) (UniProt P09619)
PDPK1 (human) = PDPK1 (human) (UniProt O15530)
PHKG1 (human) = PHKG1 (human) (UniProt Q16816)
PIM2 (human) = PIM2 (human) (UniProt Q9P1W9)
PRKCH (human) = PRKCH (human) (UniProt P24723)
RAF1 (human) = RAF1 (human) (UniProt P04049)
RPS6KA5 KD1 (human) = RPS6KA5 KD1 (human) (UniProt O75582)
STK10 (human) = STK10 (human) (UniProt O94804)
STK24 (human) = STK24 (human) (UniProt Q9Y6E0)
TEK (human) = TEK (human) (UniProt Q02763)
TNNI3K (human) = TNNI3K (human) (UniProt Q59H18)
TYRO3 (human) = TYRO3 (human) (UniProt Q06418)
CDK5 (human) = CDK5 (human) (UniProt Q00535)
CSNK1E (human) = CSNK1E (human) (UniProt P49674)
DAPK3 (human) = DAPK3 (human) (UniProt O43293)
MARK2 (human) = MARK2 (human) (UniProt Q7KZI7)

Chain of CSNK2A2 (human) (P19784 whole entry, looked up): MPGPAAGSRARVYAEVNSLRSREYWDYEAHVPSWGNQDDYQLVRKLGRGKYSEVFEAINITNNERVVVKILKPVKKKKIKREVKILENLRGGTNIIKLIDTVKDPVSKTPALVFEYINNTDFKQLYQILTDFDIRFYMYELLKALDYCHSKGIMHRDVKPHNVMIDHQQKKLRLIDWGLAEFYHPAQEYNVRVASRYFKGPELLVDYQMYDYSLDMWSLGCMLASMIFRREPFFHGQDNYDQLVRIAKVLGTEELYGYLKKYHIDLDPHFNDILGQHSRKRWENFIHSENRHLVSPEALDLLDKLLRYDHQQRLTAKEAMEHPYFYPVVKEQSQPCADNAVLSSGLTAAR
Chain of KIT (human) (P10721 whole entry, looked up): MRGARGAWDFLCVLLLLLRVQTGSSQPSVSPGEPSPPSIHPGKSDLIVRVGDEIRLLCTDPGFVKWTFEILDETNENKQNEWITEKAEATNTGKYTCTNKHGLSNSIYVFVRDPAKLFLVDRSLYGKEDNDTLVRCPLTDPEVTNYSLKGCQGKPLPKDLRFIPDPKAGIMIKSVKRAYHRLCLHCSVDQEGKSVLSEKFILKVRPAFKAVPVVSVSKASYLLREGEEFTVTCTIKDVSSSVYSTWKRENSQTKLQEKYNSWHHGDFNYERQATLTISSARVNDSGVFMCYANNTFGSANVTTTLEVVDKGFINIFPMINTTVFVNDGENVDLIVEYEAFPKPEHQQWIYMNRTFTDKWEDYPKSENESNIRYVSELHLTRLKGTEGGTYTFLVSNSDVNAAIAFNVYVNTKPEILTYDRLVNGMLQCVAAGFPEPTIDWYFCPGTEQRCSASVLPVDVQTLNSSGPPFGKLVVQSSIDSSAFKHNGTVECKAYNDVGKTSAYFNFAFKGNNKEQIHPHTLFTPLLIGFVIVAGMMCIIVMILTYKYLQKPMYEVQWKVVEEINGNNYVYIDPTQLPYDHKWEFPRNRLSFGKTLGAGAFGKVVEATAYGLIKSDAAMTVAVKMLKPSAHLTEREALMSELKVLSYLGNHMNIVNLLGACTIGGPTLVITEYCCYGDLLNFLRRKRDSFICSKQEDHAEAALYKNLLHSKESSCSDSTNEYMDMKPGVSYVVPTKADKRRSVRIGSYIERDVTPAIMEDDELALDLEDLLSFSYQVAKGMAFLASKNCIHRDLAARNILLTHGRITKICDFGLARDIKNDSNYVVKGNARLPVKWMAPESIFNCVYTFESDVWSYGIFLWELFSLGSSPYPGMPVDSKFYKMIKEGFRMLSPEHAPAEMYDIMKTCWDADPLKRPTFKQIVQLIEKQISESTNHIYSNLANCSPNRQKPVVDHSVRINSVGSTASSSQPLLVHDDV
Chain of RPS6KA5 KD1 (human) (O75582 whole entry, looked up): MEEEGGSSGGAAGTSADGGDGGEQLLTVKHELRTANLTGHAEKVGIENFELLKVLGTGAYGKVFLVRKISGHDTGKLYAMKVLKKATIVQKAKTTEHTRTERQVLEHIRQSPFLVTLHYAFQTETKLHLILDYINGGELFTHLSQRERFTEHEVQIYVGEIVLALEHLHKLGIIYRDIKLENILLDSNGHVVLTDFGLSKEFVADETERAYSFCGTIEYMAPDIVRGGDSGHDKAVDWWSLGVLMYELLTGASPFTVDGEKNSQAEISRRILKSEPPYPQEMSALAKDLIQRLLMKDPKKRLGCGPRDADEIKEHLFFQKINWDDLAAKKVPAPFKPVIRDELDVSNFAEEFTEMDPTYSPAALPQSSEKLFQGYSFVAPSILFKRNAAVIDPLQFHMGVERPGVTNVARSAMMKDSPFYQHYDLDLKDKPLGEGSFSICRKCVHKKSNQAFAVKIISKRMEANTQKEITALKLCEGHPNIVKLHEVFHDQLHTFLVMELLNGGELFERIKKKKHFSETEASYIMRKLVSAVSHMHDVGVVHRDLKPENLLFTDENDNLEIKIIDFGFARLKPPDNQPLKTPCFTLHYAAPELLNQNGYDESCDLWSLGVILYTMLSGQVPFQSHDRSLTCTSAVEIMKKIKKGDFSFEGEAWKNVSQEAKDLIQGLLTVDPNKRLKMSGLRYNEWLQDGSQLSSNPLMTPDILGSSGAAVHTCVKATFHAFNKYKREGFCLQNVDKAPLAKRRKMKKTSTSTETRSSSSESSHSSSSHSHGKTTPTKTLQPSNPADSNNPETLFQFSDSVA
Chain of PDPK1 (human) (O15530 whole entry, looked up): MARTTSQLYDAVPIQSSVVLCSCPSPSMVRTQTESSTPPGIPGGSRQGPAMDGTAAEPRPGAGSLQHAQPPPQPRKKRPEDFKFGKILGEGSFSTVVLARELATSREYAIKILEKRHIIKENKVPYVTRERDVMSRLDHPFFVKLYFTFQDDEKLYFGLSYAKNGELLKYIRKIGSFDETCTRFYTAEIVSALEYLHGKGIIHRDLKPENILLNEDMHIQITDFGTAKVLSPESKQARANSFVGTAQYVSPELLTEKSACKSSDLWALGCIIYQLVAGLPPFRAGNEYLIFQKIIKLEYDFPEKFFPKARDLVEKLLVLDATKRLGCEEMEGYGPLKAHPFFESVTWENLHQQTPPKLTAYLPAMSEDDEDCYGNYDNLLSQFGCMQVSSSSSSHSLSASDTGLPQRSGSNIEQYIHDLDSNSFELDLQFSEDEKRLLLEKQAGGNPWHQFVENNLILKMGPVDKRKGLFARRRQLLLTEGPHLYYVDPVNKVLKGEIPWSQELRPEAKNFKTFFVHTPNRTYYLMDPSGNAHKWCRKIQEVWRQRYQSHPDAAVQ
Chain of STK10 (human) (O94804 whole entry, looked up): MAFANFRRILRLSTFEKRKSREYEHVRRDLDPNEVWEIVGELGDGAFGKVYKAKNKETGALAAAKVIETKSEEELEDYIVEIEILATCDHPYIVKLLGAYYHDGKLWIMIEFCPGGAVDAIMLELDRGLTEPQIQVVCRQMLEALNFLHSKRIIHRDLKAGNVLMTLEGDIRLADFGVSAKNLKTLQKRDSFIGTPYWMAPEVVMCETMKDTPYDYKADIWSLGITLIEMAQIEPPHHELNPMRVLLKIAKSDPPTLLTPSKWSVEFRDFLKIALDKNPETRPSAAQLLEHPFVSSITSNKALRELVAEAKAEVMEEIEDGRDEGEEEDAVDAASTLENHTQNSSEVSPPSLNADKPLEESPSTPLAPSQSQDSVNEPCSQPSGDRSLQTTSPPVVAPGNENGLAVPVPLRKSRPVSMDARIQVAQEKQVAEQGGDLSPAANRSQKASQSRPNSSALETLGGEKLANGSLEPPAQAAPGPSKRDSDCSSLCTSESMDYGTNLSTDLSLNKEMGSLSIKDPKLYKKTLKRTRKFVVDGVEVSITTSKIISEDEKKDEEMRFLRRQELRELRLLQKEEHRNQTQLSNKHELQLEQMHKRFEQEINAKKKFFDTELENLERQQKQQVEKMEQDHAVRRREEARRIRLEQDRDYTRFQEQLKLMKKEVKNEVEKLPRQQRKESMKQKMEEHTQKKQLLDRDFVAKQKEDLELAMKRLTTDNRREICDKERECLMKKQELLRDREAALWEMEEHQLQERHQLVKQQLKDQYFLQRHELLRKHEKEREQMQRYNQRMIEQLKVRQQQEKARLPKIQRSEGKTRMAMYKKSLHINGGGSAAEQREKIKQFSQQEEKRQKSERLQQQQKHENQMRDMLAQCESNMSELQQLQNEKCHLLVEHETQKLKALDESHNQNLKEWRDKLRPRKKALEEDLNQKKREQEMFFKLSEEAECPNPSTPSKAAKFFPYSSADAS
Chain of BRAF (human) (P15056 whole entry, looked up): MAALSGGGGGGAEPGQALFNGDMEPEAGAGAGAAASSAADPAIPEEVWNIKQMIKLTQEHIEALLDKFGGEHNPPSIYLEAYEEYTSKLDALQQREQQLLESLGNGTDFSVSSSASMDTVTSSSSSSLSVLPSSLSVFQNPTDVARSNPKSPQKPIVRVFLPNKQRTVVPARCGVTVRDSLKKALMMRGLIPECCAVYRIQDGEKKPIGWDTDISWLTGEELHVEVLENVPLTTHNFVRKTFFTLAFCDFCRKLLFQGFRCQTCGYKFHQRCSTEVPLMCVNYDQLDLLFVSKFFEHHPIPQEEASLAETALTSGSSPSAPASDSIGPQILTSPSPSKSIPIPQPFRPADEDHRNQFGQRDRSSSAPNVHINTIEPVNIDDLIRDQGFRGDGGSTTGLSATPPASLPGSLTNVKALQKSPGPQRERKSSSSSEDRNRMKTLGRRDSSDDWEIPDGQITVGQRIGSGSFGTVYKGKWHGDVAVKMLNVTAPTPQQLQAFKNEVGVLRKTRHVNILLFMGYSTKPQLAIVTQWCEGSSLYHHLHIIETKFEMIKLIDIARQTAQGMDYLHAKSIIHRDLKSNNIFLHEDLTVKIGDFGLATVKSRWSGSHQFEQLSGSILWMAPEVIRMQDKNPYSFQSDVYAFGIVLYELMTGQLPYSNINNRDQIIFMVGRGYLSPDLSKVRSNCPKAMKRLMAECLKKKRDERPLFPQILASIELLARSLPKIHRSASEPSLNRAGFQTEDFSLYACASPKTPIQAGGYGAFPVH
Chain of PIM2 (human) (Q9P1W9 whole entry, looked up): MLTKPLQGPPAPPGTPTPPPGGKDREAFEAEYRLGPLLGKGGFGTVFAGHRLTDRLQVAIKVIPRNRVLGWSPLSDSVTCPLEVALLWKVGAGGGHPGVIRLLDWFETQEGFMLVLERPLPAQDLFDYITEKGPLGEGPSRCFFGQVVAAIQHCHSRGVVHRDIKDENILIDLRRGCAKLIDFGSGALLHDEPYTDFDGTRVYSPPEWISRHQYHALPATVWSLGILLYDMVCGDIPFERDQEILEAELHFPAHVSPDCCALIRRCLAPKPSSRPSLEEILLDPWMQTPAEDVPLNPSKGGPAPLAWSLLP
Chain of CDK5 (human) (Q00535 whole entry, looked up): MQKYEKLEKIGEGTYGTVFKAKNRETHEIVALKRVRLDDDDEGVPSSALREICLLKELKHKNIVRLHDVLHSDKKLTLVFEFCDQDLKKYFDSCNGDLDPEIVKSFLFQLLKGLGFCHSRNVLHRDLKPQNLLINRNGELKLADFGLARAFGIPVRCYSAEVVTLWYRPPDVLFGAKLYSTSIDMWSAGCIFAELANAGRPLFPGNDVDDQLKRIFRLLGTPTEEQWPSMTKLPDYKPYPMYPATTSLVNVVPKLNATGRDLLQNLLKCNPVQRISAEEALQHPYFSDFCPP

Compound	kinase still bound, per cent of control (AKT2 (human))	kinase still bound, per cent of control (BRAF (human))	kinase still bound, per cent of control (CAMK1D (human))	kinase still bound, per cent of control (CDK16 (human))	kinase still bound, per cent of control (CSNK2A1 (human))	kinase still bound, per cent of control (CSNK2A2 (human))	kinase still bound, per cent of control (FGFR2 (human))	kinase still bound, per cent of control (KIT (human)) [%]	kinase still bound, per cent of control (PAK2 (human))	kinase still bound, per cent of control (PDGFRB (human)) [%]	kinase still bound, per cent of control (PDPK1 (human))	kinase still bound, per cent of control (PHKG1 (human))	kinase still bound, per cent of control (PIM2 (human))	kinase still bound, per cent of control (PRKCH (human))	kinase still bound, per cent of control (RPS6KA5 KD1 (human))	kinase still bound, per cent of control (STK10 (human))	kinase still bound, per cent of control (TNNI3K (human))	other results
NC(=O)c1ccc(Nc2cc(-c3ccc(F)cc3)[nH]n2)cc1	no effect (inactive)	no effect (inactive)	no effect (inactive)	0%	no effect (inactive)	no effect (inactive)	no effect (inactive)	0	no effect (inactive)	0	no effect (inactive)	no effect (inactive)	no effect (inactive)	no effect (inactive)	no effect (inactive)	no effect (inactive)	no effect (inactive)	kinase still bound, per cent of control (ABL2 (human)): no effect (inactive); kinase still bound, per cent of control (ACVR1 (human)): no effect (inactive); kinase still bound, per cent of control (ACVR1B (human)): no effect (inactive); kinase still bound, per cent of control (AXL (human)): no effect (inactive); kinase still bound, per cent of control (EPHA1 (human)): no effect (inactive); kinase still bound, per cent of control (EPHA6 (human)): no effect (inactive); kinase still bound, per cent of control (EPHA8 (human)): no effect (inactive); kinase still bound, per cent of control (FES (human)): no effect (inactive); kinase still bound, per cent of control (FLT4 (human)): no effect (inactive); kinase still bound, per cent of control (FYN (human)): no effect (inactive); kinase still bound, per cent of control (MAP4K3 (human)): no effect (inactive); kinase still bound, per cent of control (MAP4K4 (human)): no effect (inactive); kinase still bound, per cent of control (MAPK8 (human)): no effect (inactive); kinase still bound, per cent of control (MST4 (human)): no effect (inactive); kinase still bound, per cent of control (RAF1 (human)): no effect (inactive); kinase still bound, per cent of control (STK24 (human)): no effect (inactive); kinase still bound, per cent of control (TEK (human)): no effect (inactive); kinase still bound, per cent of control (TYRO3 (human)): no effect (inactive)
Nc1ncnc2c1c(-c1cccc(O)c1)cn2C1CCNCC1	no effect (inactive)	no effect (inactive)	no effect (inactive)	no effect (inactive)	no effect (inactive)	no effect (inactive)	no effect (inactive)	0	no effect (inactive)	0	no effect (inactive)	no effect (inactive)	no effect (inactive)	0%	no effect (inactive)	0%	no effect (inactive)	kinase still bound, per cent of control (CDK5 (human)): no effect (inactive); kinase still bound, per cent of control (CSNK1E (human)): 0%; kinase still bound, per cent of control (DAPK3 (human)): no effect (inactive); kinase still bound, per cent of control (MARK2 (human)): no effect (inactive)
